Literature values in US6989139B2, “Matrix metalloproteinase inhibitors” (Bristol-Myers Squibb Pharma Company, priority 2000, dated 2006).

How the values were obtained:
[1] = test system: MMP-2, MMP-9 vs MMP-1, MMP-3; conditions: Lovejoy et al 1999
MMP's = conditions: literature statement

## O=C(NO)C1(CS(=O)(=O)c2ccc(Oc3ccc(Cl)cc3)cc2)CCOCC1 [Example 13]
[1]
  selectivity for MMP-2 and MMP-9 over MMP-1: selectivity for MMP-2 and MMP-9 over MMP-1

## 2-[2-({5-[N-(5-(N-hydroxycarbamoyl)(5R)-5-{3-[4-(3,4-dimethoxyphenoxy)phenyl]-3-methyl-2-oxopyrrolidinyl}pentyl)carbamoyl](2-pyridyl)}amino)(1Z)-2-azavinyl]benzenesulfonic Acid [Example 15]
MMP's
  MMP inhibitory activity: good activity

## CC(C)C[C@H]1C(=O)N[C@H](C(=O)NCc2ccc(CNC(=O)C(CS(=O)(=O)O)NC(=O)CN3CCN(CC(=O)O)CCN(CC(=O)O)CCN(CC(=O)O)CC3)cc2)Cc2ccc(cc2)OCCC[C@@H]1C(=O)NO (stereo partly drawn) [Example 6, 2-[7-({N-[1-(N-{[4-({[7-(N-hydroxycarbamoyl)(3S,6R,7S)-4-aza-6-(2-methylpropyl)-11-oxa-5-oxobicyclo[10.2.2]hexadeca-1(15),12(16),13-trien-3-yl]-carbonylamino}methyl)phenyl]methyl}carbamoyl)-2-sulfoethyl]carbamoyl}methyl)-1,4,7,10-tetraaza-4,10-bis(carboxymethyl)cyclododecyl]acetic Acid]
MMP's
  MMP inhibitory activity: nanomolar activity

## 2-[(2-{[(N-{[4-({[7-(N-hydroxycarbamoyl)(3S,6R,7S)-4-aza-6-(2-methylpropyl)-11-oxa-5-oxobicyclo[10.2.2)hexadeca-1(15),12(16),13-trien-3-yl]-carbonylamino}methyl)phenyl]methyl}carbamoyl)methyl](carboxymeth yl)amino}ethyl){2-[bis(carboxymethyl)amino]ethyl}amino]acetic Acid [Example 8]
MMP's
  MMP inhibitory activity: potent inhibition
